Reference: patent publication US8637671B2, “Indole derivatives as CRTH2 receptor antagonists” (Merck Canada Inc., priority 2008, dated 2014)

Target: T1, hCRTH2 (Homo sapiens, UniProt Q9Y5Y4)
T1 sequence (Q9Y5Y4 1-395): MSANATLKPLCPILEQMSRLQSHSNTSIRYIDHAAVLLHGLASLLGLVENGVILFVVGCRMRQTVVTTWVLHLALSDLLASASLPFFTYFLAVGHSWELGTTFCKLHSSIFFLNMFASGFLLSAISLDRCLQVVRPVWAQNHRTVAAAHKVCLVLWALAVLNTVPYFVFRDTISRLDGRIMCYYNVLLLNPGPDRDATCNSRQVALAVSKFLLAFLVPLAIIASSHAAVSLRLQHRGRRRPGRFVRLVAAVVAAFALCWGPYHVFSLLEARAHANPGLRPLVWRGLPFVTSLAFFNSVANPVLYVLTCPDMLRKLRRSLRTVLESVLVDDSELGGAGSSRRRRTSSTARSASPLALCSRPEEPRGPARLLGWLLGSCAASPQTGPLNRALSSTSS
Assay: Radioligand binding assay ([3H]PGD2 competition)
Protocol: Radioligand binding assay. […] Competing ligands were diluted in dimethylsulfoxide (Me2SO) that was kept constant at 1% (v/v) of the final incubation volume. The reaction was initiated by the addition of 8-20 μg of membrane protein prepared from a HEK-hCRTH2 cell line. Total and non-specific binding were determined in the absence and the presence of 10 μM PGD2, respectively. Under these conditions, specific binding (total minus non-specific) of the radioligand to the receptor reached equilibrium within 50 min and was stable up to 180 min. The reaction was routinely conducted for 60 min at room temperature and terminated by rapid filtration through prewetted Unifilters GF/C (Packard), using a Tomtec MachIII semi-automated harvester (for HEK-hCRTH2). The filters were then washed with 4 ml of the same buffer and residual radioligand bound to the filter was determined by liquid scintillation counting following equilibration in 25 μl Ultima Gold F™ (Unifilter) (Packard).

**Q.** For `O=C(O)Cc1c2n(c3ccccc13)C[C@H](N(Cc1ccc(F)cc1)C(=O)Cc1ccc(F)cc1)CC2` [Example 3, ((7R)-7-{(4-fluorobenzyl)[(4-fluorophenyl)acetyl]amino}-6,7,8,9-tetrahydropyrido[1,2-a]indol-10-yl)acetic acid], which Ki is on record?
**A.** ≤ 5 nM

**Q.** How did the Ki turn out when `CN(C(=O)C1(c2ccc(Cl)cc2)CCCC1)[C@@H]1CCc2c(CC(=O)O)c3ccccc3n2C1` [Example 20, {(7R)-7-[{[1-(4-chlorophenyl)cyclopentyl]carbonyl}(methyl)amino]-6,7,8,9-tetrahydropyrido[1,2-a]indol-10-yl}acetic acid] was run?
**A.** ≤ 5 nM

**Q.** For `CN(C(=O)C(C)(C)Cc1ccccc1)[C@@H]1CCc2c(CC(=O)O)c3ccccc3n2C1` [Example 26, {(7R)-7-[(2,2-dimethyl-3-phenylpropanoyl)(methyl)amino]-6,7,8,9-tetrahydropyrido[1,2-a]indol-10-yl}acetic acid], which Ki is on record?
**A.** 5 to 10 nM

**Q.** Which Ki does the source give for `CN(C(=O)CCc1ccccc1)[C@@H]1CCc2c(CC(=O)O)c3ccccc3n2C1` [Example 29, {(7R)-7-[methyl(3-phenylpropanoyl)amino]-6,7,8,9-tetrahydropyrido[1,2-a]indol-10-yl}acetic acid] here?
**A.** 5 to 10 nM

**Q.** With `CC(C(=O)N(C)[C@@H]1CCc2c(CC(=O)O)c3ccccc3n2C1)c1ccccc1` (stereo partly drawn) [Example 30, ((7R)-7-{methyl [2-phenylpropanoyl]amino}-6,7,8,9-tetrahydropyrido[1,2-a]indol-10-yl)acetic acid] as the compound, how does the Ki read?
**A.** ≤ 5 nM

**Q.** `CN(C(=O)Cc1ccc(F)cc1Br)[C@@H]1CCc2c(CC(=O)O)c3ccccc3n2C1` [Example 34, {(7R)-7-[[(2-bromo-4-fluorophenyl)acetyl](methyl)amino]-6,7,8,9-tetrahydropyrido[1,2-a]indol-10-yl}acetic acid] was tested. Which Ki did it give?
**A.** 50 to 100 nM

**Q.** Which Ki does the source give for `CN(C(=O)C1(c2ccc(F)cc2)CC1(C)C)[C@@H]1CCc2c(CC(=O)O)c3ccccc3n2C1` (stereo partly drawn) [Example 35, {(7R)-7-[{[1-(4-fluorophenyl)-2,2-dimethylcyclopropyl]carbonyl}(methyl)amino]-6,7,8,9-tetrahydropyrido[1,2-a]indol-10-yl}acetic acid] here?
**A.** ≤ 5 nM

**Q.** How did the Ki turn out when `COC(C(=O)N(C)[C@@H]1CCc2c(CC(=O)O)c3ccccc3n2C1)c1ccccc1` (stereo partly drawn) [Example 36, {(7R)-7-[[-2-methoxy-2-phenylacetyl](methyl)amino]-6,7,8,9-tetrahydropyrido[1,2-a]indol-10-yl}acetic acid] was run?
**A.** 10 to 50 nM
